Test results published in ChEMBL document CHEMBL1145890, “Synthesis, characterization, and in vitro antitumor activity of osteotropic diam(m)ineplatinum(II) complexes bearing a N,N-bis(phosphonomethyl)glycine ligand” (J Med Chem, 2003).

System: CH1
Experiment: Antiproliferative activity in human ovarian cancer cell line (CH1) using MTT assay
Format: functional, cell-based

## CARBOPLATIN
  IC50: 2500 nM

## OXALIPLATIN
  IC50: 270 nM
